Tests used:
[1] = system: G2T1 (DNA, G4) AGGGTTAGGGTTAGGGTTAGGGTTAGGGTTAGGGTTAGGGTTAGGG; assay: CD melting at 295 nm; details: 100 mM NaCl, 10 mM Li cacodylate, pH 7.3, 3 μM DNA
[2] = system: G2T6 (DNA, G4) AGGGTTAGGGTTAGGGTTAGGGTTATTATTATTATTATTAGGGTTAGGGTTAGGGTTAGGG; assay: CD melting at 295 nm; details: 100 mM NaCl, 10 mM Li cacodylate, pH 7.3, 3 μM DNA
[3] = system: G1 (Na+) monomeric HTelo G4 DNA, AGGG(TTAGGG)3; assay: CD melting with G1 (Na+); format: binding, human; details: CD melting at 295 nm, 25 to 95 °C at 2 °C/min; 100 mM NaCl, 10 mM Li cacodylate, pH 7.3; [G4 unit] 6 μM, [salphen unit] 12 μM
Procedure: (§1) Next, the DNA binding properties of the monomeric and dimeric compounds were studied. […] The following notation is used: […] The CD melting experiments were conducted solely with Na^+ stabilized DNA, which forms an antiparallel topology in solution (cf., in the presence of K^+ a mixture of topologies is observed). During the assay the temperature was increased from 25 to 95 °C upon which the intensity of signals with negative ellipticity at ca. 265 nm and positive ellipticity at ca. 295 (characteristic of an antiparallel G4 structure) decreased-see Figure 4a. This indicates the expected unfolding of the G4 DNA structure as the temperature increases. The changes in intensity were subsequently used to produce the corresponding melting curves (Figure 4b) for each sequence in the absence and presence of the different compounds under study. From these curves, the ΔTm values for the different sequences and compounds were determined, and the results are summarized in Figure 4c (see Supplementary Table 1 for values). […] G-Quadruplex oligonucleotides were purchased from Eurogentec (Belgium), and CT-DNA was purchased from Sigma-Aldrich. […] Prior to use, the DNA stock solutions were annealed by heating at 95 °C for 5 min and then cooling to room temperature overnight. Experiments were carried out on a Jasco J-810 spectrophotometer using a 1 cm quartz cuvette. Temperature was controlled using a Peltier module. The signal at 295 nm was monitored as temperature was increased for 25 to 95 °C at a rate of 2 °C/min. CD melting experiments were carried out with the appropriate G4 DNA (100 mM NaCl, 10 mM Li cacodylate, pH 7.3). Sample preparation was carried out by combining stock solutions of ligand and DNA in the appropriate buffer. […] Melting temperatures were obtained by curve fitting in Graphpad Prism 8. The data was normalized and fitted to a variable slope Hill equation, and the melting temperature was defined at the temperature at which y = 0.5.

[4] = system: G2T1 (Na+) dimeric HTelo G4 DNA, AGGG(TTAGGG)7; assay: CD melting with G2T1 (Na+); format: binding, human; details: CD melting at 295 nm, 25 to 95 °C at 2 °C/min; 100 mM NaCl, 10 mM Li cacodylate, pH 7.3; [G4 unit] 6 μM (3 μM dimeric sequence), [salphen unit] 12 μM
Procedure: as §1

[5] = system: G2T6 (Na+) dimeric HTelo G4 DNA, AGGG(TTAGGG)3(TTA)5(TTAGGG)4; assay: CD melting with G2T6 (Na+); format: binding, human; details: CD melting at 295 nm, 25 to 95 °C at 2 °C/min; 100 mM NaCl, 10 mM Li cacodylate, pH 7.3; [G4 unit] 6 μM (3 μM dimeric sequence), [salphen unit] 12 μM
Procedure: as §1

[6] = 6 μM compound (12 μM salphen units)

| SMILES | ΔTm [1, 6] | ΔTm ([1]; 12 μM compound) | ΔTm ([2]; 12 μM compound) | other results |
| --- | --- | --- | --- | --- |
| C[N+](C)(C)CCOc1ccc(C=Nc2ccc(C(=O)NCc3cn(CC(=O)N[C@@H](CCCNC(=N)N)C(=O)N[C@@H](CCCCN)C(=O)N[C@@H](CCCCN)C(=O)N[C@@H](CCCNC(=N)N)C(=O)N[C@@H](Cn4cc(CNC(=O)c5ccc(N=Cc6ccc(OCC[N+](C)(C)C)cc6[O-])c(N=Cc6ccc(OCC[N+](C)(C)C)cc6[O-])c5)nn4)C(N)=O)nn3)cc2N=Cc2ccc(OCC[N+](C)(C)C)cc2[O-])c([O-])c1.[Pt+2].[Pt+2] | 16.3 °C | – | – | ΔTm [2, 6]: 13.8 °C |
| C[N+](C)(C)CCOc1ccc(C=Nc2ccc(C(=O)NCc3cn(CC(=O)N[C@@H](CCCNC(=N)N)C(=O)N[C@@H](CCCNC(=N)N)C(=O)N[C@@H](Cn4cc(CNC(=O)c5ccc(N=Cc6ccc(OCC[N+](C)(C)C)cc6[O-])c(N=Cc6ccc(OCC[N+](C)(C)C)cc6[O-])c5)nn4)C(N)=O)nn3)cc2N=Cc2ccc(OCC[N+](C)(C)C)cc2[O-])c([O-])c1.[Pt+2].[Pt+2] | 14.6 °C | – | – | – |
| C[N+](C)(C)CCOc1ccc(C=Nc2ccccc2N=Cc2ccc(OCC[N+](C)(C)C)cc2[O-])c([O-])c1.[Ni+2] | – | 16 °C | 17 °C | – |
| C[N+](C)(C)CCOc1ccc(C=Nc2ccccc2N=Cc2ccc(OCC[N+](C)(C)C)cc2[O-])c([O-])c1.[Pt+2] | – | 21 °C | 19 °C | – |
| C[N+](C)(C)CCOc1ccc2c(c1)[O][Ni][O]c1cc(OCC[N+](C)(C)C)ccc1C=Nc1cc(C(=O)NCc3cn(CCOCCOCCn4cc(CNC(=O)c5ccc6c(c5)N=Cc5ccc(OCC[N+](C)(C)C)cc5[O][Ni][O]c5cc(OCC[N+](C)(C)C)ccc5C=N6)nn4)nn3)ccc1N=C2.F[P-](F)(F)(F)(F)F.F[P-](F)(F)(F)(F)F.F[P-](F)(F)(F)(F)F.F[P-](F)(F)(F)(F)F [Compound D2] | – | – | – | ΔTm G1 (Na+) [3]: 2.66 °C; ΔTm G2T1 (Na+) [4]: 13.80 °C; ΔTm G2T6 (Na+) [5]: 11.14 °C |
